Source: ChEMBL document CHEMBL3507680, “University of Dundee, Gates Library screen for HepG2 cell viability”

assay: Human HepG2 cell viability assay in 384 well format; type: toxicity, cell-based; parameters: dose 125 nL, time 70.5 hour; cytotoxicity at 70.5 h: concentration not given beside the values; details: HepG2 cells, read-out: Inhibition

Structure (SMILES)	cytotoxicity at 70.5 h [%]
Cc1cccc(NC(=O)CNC(=O)Cn2ncc(Cl)c(Cl)c2=O)c1C	4.71
COc1cccc(NC(=O)NCC(Cc2cnn(C)c2)C(N)=O)c1 (stereo not given)	-7.2
Cn1cc(CC(CNC(=O)Nc2cccc(Cl)c2)C(N)=O)cn1 (stereo not given)	-6.01
CC(C)C(c1cccnc1)N(C)C(=O)Cc1c(F)cccc1F (stereo not given)	-6.11
O=C(Cc1ccc(S(=O)(=O)C(F)F)cc1)N1CCCC1	-5.59
CC1CCN(C(=O)Cc2ccc(S(=O)(=O)C(F)F)cc2)CC1	-11
COCCOC1CCN(C(=O)NCc2cc(C)oc2C)CC1	-8.46
CC(C)c1nnc2n1CCN(C(C)c1nnc(-c3cccs3)o1)C2 (stereo not given)	-3.01
CC(C)N(C)C(=O)CSCc1ccc(S(=O)(=O)N(C)C)o1	-10.8
Cc1ccc2c(c1)OCCCC2NCc1nccn1Cc1ccccc1 (stereo not given)	-6.01
CCN1CCN(C(=O)C(C)SC)CC1 (stereo not given)	-6.96
Cc1cccc2c1OCCCC2NCc1nccn1Cc1ccccc1 (stereo not given)	-5.77
Cc1ccc2c(c1)OCCCC2NCc1nccn1CC(C)C (stereo not given)	-7.28
Cc1nc(CNC(C(=O)N2CCOCC2)C(C)C)no1 (stereo not given)	-6.16
COCCN(CCOC)c1ncccc1Cl	-6.57
Cc1nc(CN(C)C2CCN(Cc3cccc4cccnc34)C2)no1 (stereo not given)	34
CCc1nnnn1Cc1csc(N(C)C(C)=O)n1	11.5
O=C(NCC1(Sc2ccccc2)CC1)c1c[nH]nn1	-0.96
O=C(NCC1(Sc2ccccc2)CC1)c1cc[nH]n1	-1.79
CS(=O)(=O)c1ccc(C(=O)NCc2nc3cc(F)ccc3[nH]2)cc1	0.751
Cc1noc(C)c1CC(=O)N1CCCN(C)c2ccc(Cl)cc21	-11.4
Cc1cc(S(=O)(=O)NCC[S+](C)[O-])c(F)cc1F (stereo not given)	-2.05
CC(O)(CNC(=O)c1cccnc1-n1cccn1)c1ccco1 (stereo not given)	-4.51

Structure (SMILES)	cytotoxicity at 70.5 h [%]
NC(=O)CN1CCC(OCc2ccc(Cl)c(Cl)c2)CC1	-1.02
CCc1cnccc1C(=O)NC1CCN(C(=O)OC)CC1	24.5
CC(O)(CNC(=O)c1cccnc1-n1cccn1)c1cccs1 (stereo not given)	-9.1
CC(C)(C)SCC(=O)NC(C)(C(N)=O)c1cccc(Cl)c1 (stereo not given)	-6.38
CC(C)(C)CC(=O)NC(C)(C(N)=O)c1cccc(Cl)c1 (stereo not given)	17.3
Cc1nnc(CN(C)CC2CCCCC2)o1	-11.8
Cc1cc(S(=O)(=O)NCC(C)(O)CN(C)C)c(F)cc1F (stereo not given)	-9.95
CC1COCCN1Cc1noc(C(C)(C)C)n1 (stereo not given)	19.8
Cc1cnn(CC2CCCN2Cc2cc(=O)n3ccccc3n2)c1 (stereo not given)	-5.58
Cc1cc(CN2CCCC(C)(CO)C2)ccc1F (stereo not given)	-6.61
Cc1ccc(C(CNCC2CC2)N2CCOCC2)s1 (stereo not given)	11.7
CS(=O)(=O)NCCCNC(=O)c1cccnc1O	-4.43
O=C(Nc1ccc(N2CCCC2)nc1)N1CCc2sccc2C1	15.9
Cc1cc(NC(=O)c2nc(N3CCCC3)ncc2Cl)nc(C(C)C)n1	2.57
CS(=O)(=O)c1ccc(NC(=O)N2CCc3sccc3C2)cn1	46.4
COc1cc(CN(C)C(=O)Nc2cc(C)on2)ccc1SC	-1.35
N#CCCN(CCC#N)C(=O)CN1CCCC1Cc1cccc(F)c1 (stereo not given)	-5
Cc1ccc(C(=O)NCCCNS(C)(=O)=O)c(=O)[nH]1	-3.31
CNC(=O)c1cnc(/C=C/c2ccc(OC)c(O)c2)s1	-6.12
O=C(Nc1ccc(N2CCCC2)nc1)N1CCc2ccccc2C1	3.91
COc1ccc(NC(=O)C2CCOC2)c(N2CCN(C(C)=O)CC2)n1 (stereo not given)	4.61
COc1ccc(NC(=O)c2ccc[nH]2)c(N2CCN(C(C)=O)CC2)n1	-0.755
CCCNC(=O)Nc1cc2c(cc1SC)OCCO2	0.576

Structure (SMILES)	cytotoxicity at 70.5 h [%]
CSc1cc2c(cc1NC(=O)NCC(C)(C)C(N)=O)OCCO2	-1.42
CCCN1CCC(NC(=O)NCCc2nc(CC)c(C)s2)CC1	-1.97
CCCn1nc2c(cc1=O)CN(Cc1cc(C)on1)CC2	4.88
Cc1noc(CN2CCN(CC(C)O)CC2)n1 (stereo not given)	2.13
COCCCN1CCCN(C(C)C(=O)Nc2cccc(I)c2)CC1 (stereo not given)	21.2
COCCCN1CCCN(C(C)C(=O)Nc2ccnn2C(C)C)CC1 (stereo not given)	-4
COc1cccc(CN(C)Cc2cccc(C#N)c2)c1OC	-3.83
CNS(=O)(=O)c1cccc(C(C)NCc2cccc(OC)c2)c1 (stereo not given)	10.9
CNS(=O)(=O)c1cccc(C(C)NCc2ccccc2)c1 (stereo not given)	-2.31
CC(NCC1=Cc2cc(Cl)ccc2OC1)c1nnc2n1CCCC2 (stereo not given)	-3.35
Cc1ccc(CNCc2nnc3n2CCCC3C(F)(F)F)s1 (stereo not given)	-10.1
CCCS(=O)(=O)N1CCC(NC(=O)c2ccc(Cl)s2)CC1	-11.6
CCCS(=O)(=O)N1CCC(NC(=O)c2cc(C)c(CC)s2)CC1	-12.1
CCC(=O)NCc1cc(Br)ccc1OC(F)F	-6
Cc1cc(C2CCCN2C(=O)NCc2cccc(F)c2)on1 (stereo not given)	-8.57
CCCSCC(=O)Nc1ncn(CC(=O)NCc2ccccc2)n1	-5.44
Cc1cnn(Cc2cc(F)ccc2F)c1NC(=O)NC1CC1	-7.32
CCCNC(=O)CCNC(=O)Cc1nc(-c2ccco2)oc1C	-4.05
Cc1cccc(NC(=O)[C@@H]2CCCN2CC(=O)N2CCCCCC2)n1	-4.62
Cc1cnn(C2CN(CC(O)c3ccc4c(c3)OCCO4)C2)c1 (stereo not given)	-3.93
Cc1cc(S(=O)(=O)N2CCCc3ccc(F)cc32)sc1C(=O)O	-2.82
N#CC(Sc1nnnn1C1CCOCC1)C1CCCCC1 (stereo not given)	-3.62
Cc1cc(C(=O)NC2CCCN(c3ccccc3)C2=O)on1 (stereo not given)	0.654

Structure (SMILES)	cytotoxicity at 70.5 h [%]
CS(=O)(=O)NCC(=O)N1CCCC1c1noc(C2CC2)n1 (stereo not given)	-2.26
Cc1cc(NC(=O)Cn2cc(C#N)c(=O)c3cc(Br)ccc32)no1	0.537
COCc1nc2n(n1)CCCC2Nc1nc(C2CC2)ns1 (stereo not given)	1.93
CCc1nsc(NC2CCCn3nc(COC)nc32)n1 (stereo not given)	-3.94
CSC(C)(C)CNC(=O)NC1CCN(C)CC1	-3.38
COc1cccc(Cc2nnc(SC3CCOC3=O)o2)c1 (stereo not given)	-5.61
COC(=O)CCN1CCCC1c1ccccc1Cl (stereo not given)	-6.47
N#Cc1cccc(CS(=O)(=O)NCCC(O)c2ccccc2)c1 (stereo not given)	-10
Cc1ccc(C2COCCN2C(=O)c2ccc(N(C)C)cc2)o1 (stereo not given)	-8.97
COc1ncccc1NC(=O)N1CCC(CNC(C)=O)CC1	-7.14
O=C(NCCN1CCOCC1)NCc1ncc(-c2ccccc2)o1	-11.5
CCc1ncc(C(=O)NCCNC(=O)Cc2ccc(F)cc2)s1	-11.7
Cn1c(C(=O)N2CCC(C(=O)N3CCCC3)CC2)c(Cl)c2ccccc21	-9.31
CCS(=O)(=O)c1ccc(N2CCC(NC(=O)CCC(C)C)CC2)cc1	-9.09
Cn1ccnc1SCc1nc(C(C)(C)NC(=O)OC(C)(C)C)no1	12
c1ccc2c(N3CCCCC3Cn3cncn3)ncnc2c1 (stereo not given)	-9.62
Cc1nc(C)n(CC2CCCCN2CC(=O)Nc2nncs2)n1 (stereo not given)	-1.06
Cc1cnn(CCNCc2ccc(OCC(N)=O)cc2)c1	-6.65
Cc1cc(C)n(CC2CCCCN2CC(=O)Nc2cccnc2)n1 (stereo not given)	17.8
O=C(CC1=CCCCC1)NCCc1csc(N2CCCC2)n1	-0.0397
CC(O)CN1CCN(C(=O)c2cnn(-c3ccc(Cl)cc3)c2)CC1 (stereo not given)	-5.02
c1nc(N2CCCCC2Cn2cncn2)c2ccsc2n1 (stereo not given)	14.7
c1ccc(OCCN2CCCC(c3noc(C4CC4)n3)C2)cc1 (stereo not given)	-0.448

Structure (SMILES)	cytotoxicity at 70.5 h [%]
O=C(O)c1ccc(F)c(S(=O)(=O)Nc2c(F)cccc2-n2cccn2)c1	-5.11
c1coc(CN2CCO[C@@]3(CCC[C@@H]3COCc3nccs3)C2)c1	-13.3
Cc1noc(C)c1CN1C[C@@H]2COC[C@@H](C(=O)N3CCCO3)[C@@H]2C1	51.2
O=C(c1cccs1)N1CC[C@@H]2[C@H]1CCC(=O)N2c1ccccc1	-16.9
CC(=O)NCC(=O)N1CCN(Cc2cccnc2)c2ncccc2C1	-15.1
Cc1ccc(S(=O)(=O)NCC(C)(C)N)c(F)c1	-6.25
Cc1cc(S(=O)(=O)NCC(C)(C)N)c(F)cc1F	-0.878
NCC1(c2cccc(Br)c2)CCOCC1	-5.45
COc1c(CNC2CCc3c(Cl)cccc32)c(C)nn1C (stereo not given)	-12.4
O=C1COC2(CCN(CC3CC3)CC2)CN1c1ccsc1	-8.69
CN(C)[C@@H]1CCN(C(=O)CC2CC2)[C@H]1Cc1cnn(C)c1	-7.51
CCN1C[C@H]2[C@@H](C1)N(S(=O)(=O)c1ccccc1)CC[C@H]2OC	-2.93
COCCN1C(=O)C[C@H]2[C@H]1CCN2Cc1ccccc1	-4.06
COCCCNC(=O)c1cc(-c2cnc(N3CCOCC3)nc2)cn1C	-6.15
Cc1cccc(C(=O)N2CC[C@@H]3[C@H]2CCC(=O)N3c2ccccc2)n1	17.8
O=C(C1CCOCC1)N1CCO[C@H]2[C@H](Oc3ccccn3)CC[C@@H]21	13.9
Cc1occc1C(=O)N1C[C@H](Oc2ccccn2)[C@H]2OCCC[C@H]21	-10.8
c1cncc(CN2CC[C@H]3O[C@@H](COCC4CCOCC4)CC[C@H]32)c1	-7.03
c1cncc(CN2CCn3c(Cn4cncn4)cnc3C2)c1	-7.44
O=C(c1ccco1)N1CCN2C[C@H](OCc3cccnc3)C[C@H]2C1	-12.3
c1cncc(OC[C@@H]2CCC[C@@]23CN(Cc2nccs2)CCO3)c1	-2.19
Cn1nnc2c1CCN(Cc1ccccn1)C2COCc1ccccc1 (stereo not given)	14.7
c1ccc(COC[C@H]2CC[C@H]3[C@H](CCN3Cc3ccccn3)O2)nc1	-10.3
